In PubChem BioAssay AID200 (DTP/NCI, 2004):
Where “and” joins values, the source holds several entries; their conditions need not be identical. Identical values can stand only once. Toxic doses and inconclusive results are not listed. The calls were made as follows: active = survival T/C of 150% or more; inactive = T/C below 125% in these data.

Test system: B6C3F1 mice, B16 melanoma ip, median survival T/C
Assay: NCI In Vivo Anticancer Drug Screen. Data for tumor model B16 Melanoma (intraperitoneal) in B6C3F1 mice
Settings: endpoint: median survival time, schedule: Q01DX009 (ip), higher = longer survival
In short: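 Tumor-bearing mice received test compound; a separate group got vehicle only. Survival was then compared, with results reported as treated over control.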

[1] = dose: 25.0 mg/kg/injection, vehicle: saline with Tween-80
[2] = dose: 50.0 mg/kg/injection, vehicle: saline with Tween-80
[3] = dose: 12.5 mg/kg/injection, vehicle: saline with Tween-80
[4] = dose: 12.5 mg/kg/injection, vehicle: saline
[5] = dose: 25.0 mg/kg/injection, vehicle: saline
[6] = dose: 50.0 mg/kg/injection, vehicle: saline
[7] = dose: 100.0 mg/kg/injection, vehicle: saline with Tween-80
[8] = dose: 100.0 mg/kg/injection, vehicle: saline
[9] = dose: 200.0 mg/kg/injection, vehicle: saline with Tween-80
[10] = dose: 200.0 mg/kg/injection, vehicle: saline
[11] = dose: 400.0 mg/kg/injection, vehicle: saline with Tween-80
[12] = dose: 400.0 mg/kg/injection, vehicle: saline
[13] = dose: 12.5 mg/kg/injection, vehicle: Klucel (hydroxypropylcellulose) (HPC)
[14] = dose: 25.0 mg/kg/injection, vehicle: Klucel (hydroxypropylcellulose) (HPC)
[15] = dose: 50.0 mg/kg/injection, vehicle: Klucel (hydroxypropylcellulose) (HPC)

Measured: T/C

NC(=O)c1[nH]nc(C2OC(CO)C(O)C2O)c1O (stereo unspecified)
inactive: dose: 0.13 mg/kg/injection, vehicle: saline 106 % of control | dose: 0.25 mg/kg/injection, vehicle: saline 103 % of control | dose: 0.5 mg/kg/injection, vehicle: saline 111 % of control | dose: 1.0 mg/kg/injection, vehicle: saline 118 % of control

CCOC(=O)c1[nH]c2cccc3c2c1CC(Br)C3=O (stereo unspecified)
inactive: dose: 12.0 mg/kg/injection, vehicle: saline with Tween-80 98 % of control | [1] 93 % of control | [2] 100 % of control

O=Cc1ccc(O)c(O)c1
inactive: dose: 6.25 mg/kg/injection, vehicle: saline with Tween-80 100 % of control | [3] 87 % of control | [4] 97 % of control | [1] 94 % of control and 97 % of control | [5] 99 % of control | dose: 25.0 mg/kg/injection, vehicle: water 112 % of control and 100 % of control | [2] 93 % of control | [6] 89 % of control | dose: 50.0 mg/kg/injection, vehicle: water 112 % of control and 90 % of control | [7] 89 % of control | [8] 96 % of control | dose: 100.0 mg/kg/injection, vehicle: water 95 % of control and 96 % of control | [9] 89 % of control | [10] 95 % of control | [11] 92 % of control | [12] 104 % of control

CC(O)C(NC(=O)OCC1c2ccccc2-c2ccccc21)C(=O)O (stereo unspecified)
inactive: [13] 94 % of control and 98 % of control | [14] 88 % of control and 96 % of control | [15] 100 % of control and 101 % of control | dose: 100.0 mg/kg/injection, vehicle: Klucel (hydroxypropylcellulose) (HPC) 93 % of control and 98 % of control | dose: 200.0 mg/kg/injection, vehicle: Klucel (hydroxypropylcellulose) (HPC) 90 % of control and 100 % of control

Cn1c2ccccc2c2ccc3c(c21)C(=O)C=CC3=O
inactive: dose: 6.25 mg/kg/injection, vehicle: Klucel (hydroxypropylcellulose) (HPC) 96 % of control | [13] 107 % of control

NC1=NC(=O)N2CC12 (stereo unspecified)
inactive: [4] 105 % of control | [5] 95 % of control | [6] 95 % of control | [8] 89 % of control

Cc1cc(Nc2ccc3c(c2)OCO3)c2cc3c(cc2n1)OCO3
inactive: [14] 105 % of control | [15] 101 % of control

O=C(O)CCC(NC(=O)c1ccccc1)C(=O)O (stereo unspecified)
inactive: [2] 93 % of control | [7] 106 % of control

COCC12CCC(OC)C34C5CC6(O)C(OC)CC(OC(C)=O)(C5C6OC(=O)c5ccccc5)C(C(OC)C13)C4N(C)C2 (stereo unspecified)
inactive: dose: 15.0 micrograms/kg/injection, vehicle: Klucel (hydroxypropylcellulose) (HPC) 92 % of control | dose: 30.0 micrograms/kg/injection, vehicle: Klucel (hydroxypropylcellulose) (HPC) 108 % of control | dose: 60.0 micrograms/kg/injection, vehicle: Klucel (hydroxypropylcellulose) (HPC) 96 % of control | dose: 120.0 micrograms/kg/injection, vehicle: Klucel (hydroxypropylcellulose) (HPC) 99 % of control

NC(CS)C(=O)O (stereo unspecified)
inactive: [6] 93 % of control and 104 % of control | [7] 107 % of control | [8] 93 % of control and 103 % of control | [9] 109 % of control | [10] 93 % of control | [11] 107 % of control | [12] 116 % of control and 92 % of control | dose: 800.0 mg/kg/injection, vehicle: saline with Tween-80 100 % of control

Nc1ccc(S(N)(=O)=O)cc1
inactive: [3] 94 % of control | [1] 86 % of control and 99 % of control | [2] 98 % of control and 100 % of control | [7] 105 % of control and 108 % of control | [9] 114 % of control and 101 % of control | [11] 90 % of control and 99 % of control
